From patent US10765114B2, “4-amino-6-(pyridyl and 2-substitutedphenyl)-picolinates and 6-amino-2-(pyridyl and 2-substitutedphenyl)-pyrimidine-4-carboxylates and their use as herbicides” (Dow AgroSciences LLC, priority 2013, dated 2020)
Where two headings read alike, the source gives them in different places.

Legend:
[1] = tested on: Key Broadleaf Weed and Crop Species; assay: Post-Emergent Test II (Table 5); assay type: in vivo; details: post-emergence, 336 h; for pest or weed control at 70 g/ha: application rate 70 (kg ai/ha; footnote: g ai/ha); for pest or weed control at 140 g/ha: application rate 140 (kg ai/ha; footnote: g ai/ha)
Summary of the method: (§1)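 Post-emergence greenhouse spray, 1st-2nd true leaf stage; track sprayer, 187 L/ha; acetone/DMSO stock diluted in aqueous acetone/IPA/DMSO with Atplus 411F and Triton X-155; rates 1× to 1/16×; subirrigated; visual injury 0 (none) to 100% (complete kill) at 14 days.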

[2] = tested on: Key Grass and Sedge Weeds as well as Grass Crops; assay: Post-Emergent Test II (Table 6); assay type: in vivo; details: post-emergence, 336 h, 14 days after application; for pest or weed control at 70 g/ha: 70 g ai/ha; for pest or weed control at 140 g/ha: 140 g ai/ha
Summary of the method: as §1

[3] = Abutilon theophrasti, ABUTH: velvetleaf (Abutilon theophrasti), read-out: Visual Growth Reduction (%) 14 Days After Application ABUTH
[4] = Amaranthus retroflexus, AMARE: redroot pigweed (Amaranthus retroflexus), read-out: Visual Growth Reduction (%) 14 Days After Application AMARE
[5] = Brassica napus, BRSSS: oilseed rape, canola (Brassica napus), read-out: Visual Growth Reduction (%) 14 Days After Application BRSSS
[6] = Chenopodium album, CHEAL: lambsquarters (Chenopodium album), read-out: Visual Growth Reduction (%) 14 Days After Application CHEAL
[7] = Euphorbia heterophylla, EPHHL: wild poinsettia (Euphorbia heterophylla), read-out: Visual Growth Reduction (%) 14 Days After Application EPHHL
[8] = Helianthus annuus, HELAN: sunflower (Helianthus annuus), read-out: Visual Growth Reduction (%) 14 Days After Application HELAN
[9] = Viola tricolor, VIOTR: wild pansy (Viola tricolor), read-out: Visual Growth Reduction (%) 14 Days After Application VIOTR
[10] = CYPSS, read-out: Visual Growth Reduction (%) 14 Days After Application CYPSS
[11] = DIGSA: crabgrass (Digitaria sanguinalis), read-out: Visual Growth Reduction (%) 14 Days After Application DIGSA
[12] = ECHSS, read-out: Visual Growth Reduction (%) 14 Days After Application ECHSS
[13] = ORYSS (crop), read-out: Visual Growth Reduction (%) 14 Days After Application ORYSS
[14] = SETFA: giant foxtail (Setaria faberi), read-out: Visual Growth Reduction (%) 14 Days After Application SETFA
[15] = SORVU: grain sorghum (Sorghum vulgare), read-out: Visual Growth Reduction (%) 14 Days After Application SORVU
[16] = TRZSS (crop), read-out: Visual Growth Reduction (%) 14 Days After Application TRZSS
[17] = ZEAMX: maize, corn (Zea mays), read-out: Visual Growth Reduction (%) 14 Days After Application ZEAMX

COc1nc(C(F)(F)F)ccc1-c1cc(N)c(Cl)c(C(=O)O)n1 [Compound 65]
pest or weed control at 70 g/ha [1, 3]: 0 to 29%
pest or weed control at 140 g/ha [1, 3]: 0 to 29%
pest or weed control at 70 g/ha [1, 4]: 85 to 94%
pest or weed control at 140 g/ha [1, 4]: 85 to 94%
pest or weed control at 70 g/ha [1, 5]: 0 to 29%
pest or weed control at 140 g/ha [1, 5]: 0 to 29%
pest or weed control at 70 g/ha [1, 6]: 0 to 29%
pest or weed control at 140 g/ha [1, 6]: 0 to 29%
pest or weed control at 70 g/ha [1, 7]: 0 to 29%
pest or weed control at 140 g/ha [1, 7]: 0 to 29%
pest or weed control at 70 g/ha [1, 8]: 45 to 59%
pest or weed control at 140 g/ha [1, 8]: 45 to 59%
pest or weed control at 70 g/ha [1, 9]: 0 to 29%
pest or weed control at 140 g/ha [1, 9]: 0 to 29%
pest or weed control at 70 g/ha [2, 10]: 0 to 29%
pest or weed control at 140 g/ha [2, 10]: 0 to 29%
pest or weed control at 70 g/ha [2, 11]: 0 to 29%
pest or weed control at 140 g/ha [2, 11]: 0 to 29%
pest or weed control at 70 g/ha [2, 12]: 0 to 29%
pest or weed control at 140 g/ha [2, 12]: 0 to 29%
pest or weed control at 70 g/ha [2, 13]: 0 to 29%
pest or weed control at 140 g/ha [2, 13]: 0 to 29%
pest or weed control at 70 g/ha [2, 14]: 0 to 29%
pest or weed control at 140 g/ha [2, 14]: 0 to 29%
pest or weed control at 70 g/ha [2, 15]: 0 to 29%
pest or weed control at 140 g/ha [2, 15]: 0 to 29%
pest or weed control at 70 g/ha [2, 16]: 0 to 29%
pest or weed control at 140 g/ha [2, 16]: 0 to 29%
pest or weed control at 70 g/ha [2, 17]: 0 to 29%
pest or weed control at 140 g/ha [2, 17]: 0 to 29%
melting point: 169 to 171 °C

Cc1c(-c2ccc(C(F)(F)F)nc2)nc(C(=O)O)c(Cl)c1N [Compound 51, 4-amino-5-chloro-3-methyl-6′-(trifluoromethyl)-[2,3′-bipyridine]-6-carboxylic acid]
pest or weed control at 70 g/ha [1, 3]: 0 to 29%
pest or weed control at 140 g/ha [1, 3]: 0 to 29%
pest or weed control at 70 g/ha [1, 4]: 0 to 29%
pest or weed control at 140 g/ha [1, 4]: 0 to 29%
pest or weed control at 70 g/ha [1, 5]: 60 to 74%
pest or weed control at 140 g/ha [1, 5]: 85 to 94%
pest or weed control at 70 g/ha [1, 6]: 0 to 29%
pest or weed control at 140 g/ha [1, 6]: 85 to 94%
pest or weed control at 70 g/ha [1, 7]: 0 to 29%
pest or weed control at 140 g/ha [1, 7]: 0 to 29%
pest or weed control at 70 g/ha [1, 8]: 85 to 94%
pest or weed control at 140 g/ha [1, 8]: 85 to 94%
pest or weed control at 70 g/ha [1, 9]: 0 to 29%
pest or weed control at 140 g/ha [1, 9]: 0 to 29%
pest or weed control at 70 g/ha [2, 10]: 95 to 100%
pest or weed control at 140 g/ha [2, 10]: 95 to 100%
pest or weed control at 70 g/ha [2, 11]: 60 to 74%
pest or weed control at 140 g/ha [2, 11]: 60 to 74%
pest or weed control at 70 g/ha [2, 13]: 0 to 29%
pest or weed control at 140 g/ha [2, 13]: 0 to 29%
pest or weed control at 70 g/ha [2, 15]: 75 to 84%
pest or weed control at 140 g/ha [2, 15]: 75 to 84%
pest or weed control at 70 g/ha [2, 16]: 30 to 44%
pest or weed control at 140 g/ha [2, 16]: 45 to 59%
pest or weed control at 70 g/ha [2, 17]: 60 to 74%
pest or weed control at 140 g/ha [2, 17]: 60 to 74%
melting point: 140 to 160 °C

COc1c(N)nc(-c2ccc(Cl)c(F)c2C)nc1C(=O)O [Compound 64]
pest or weed control at 70 g/ha [1, 3]: 0 to 29%
pest or weed control at 140 g/ha [1, 3]: 0 to 29%
pest or weed control at 70 g/ha [1, 4]: 60 to 74%
pest or weed control at 140 g/ha [1, 4]: 75 to 84%
pest or weed control at 70 g/ha [1, 5]: 0 to 29%
pest or weed control at 140 g/ha [1, 5]: 0 to 29%
pest or weed control at 70 g/ha [1, 6]: 95 to 100%
pest or weed control at 140 g/ha [1, 6]: 95 to 100%
pest or weed control at 70 g/ha [1, 7]: 0 to 29%
pest or weed control at 140 g/ha [1, 7]: 0 to 29%
pest or weed control at 70 g/ha [1, 8]: 45 to 59%
pest or weed control at 140 g/ha [1, 8]: 85 to 94%
pest or weed control at 70 g/ha [1, 9]: 0 to 29%
pest or weed control at 140 g/ha [1, 9]: 0 to 29%
pest or weed control at 70 g/ha [2, 10]: 0 to 29%
pest or weed control at 140 g/ha [2, 10]: 0 to 29%
pest or weed control at 70 g/ha [2, 11]: 0 to 29%
pest or weed control at 140 g/ha [2, 11]: 0 to 29%
pest or weed control at 70 g/ha [2, 12]: 0 to 29%
pest or weed control at 140 g/ha [2, 12]: 0 to 29%
pest or weed control at 70 g/ha [2, 13]: 0 to 29%
pest or weed control at 140 g/ha [2, 13]: 0 to 29%
pest or weed control at 70 g/ha [2, 14]: 0 to 29%
pest or weed control at 140 g/ha [2, 14]: 0 to 29%
pest or weed control at 70 g/ha [2, 15]: 0 to 29%
pest or weed control at 140 g/ha [2, 15]: 0 to 29%
pest or weed control at 70 g/ha [2, 16]: 0 to 29%
pest or weed control at 140 g/ha [2, 16]: 0 to 29%
pest or weed control at 70 g/ha [2, 17]: 0 to 29%
pest or weed control at 140 g/ha [2, 17]: 0 to 29%
melting point: 140 to 143 °C
